Patent publication US8067424B2, “Selective inhibitors for cyclin-dependent kinases” (Emory University, priority 2007, dated 2011)
Read-outs that look alike come from different tables or passages of the source.

Columns and labels:
MALME-3M = conditions: for Mean Optical Densities / Percent Growth: MALME-3M
T-47D = test: cells; conditions: Homo sapiens, T47D
SNB-19 = test: cells; conditions: Homo sapiens
LOX IMVI = conditions: for Mean Optical Densities / Percent Growth: LOX IMVI
MCF7 = test: cells; conditions: Homo sapiens
HT29 = test: cells; conditions: Homo sapiens
ACHN [1] = test: cells; conditions: Homo sapiens
SF-295 = test: cells; conditions: Homo sapiens
HS 578T [2] = conditions: for Mean Optical Densities / Percent Growth: HS 578T
HOP-92 = test: cells; conditions: Homo sapiens
HCT-15 = test: cells; conditions: Homo sapiens
ACHN [3] = conditions: for Mean Optical Densities / Percent Growth: ACHN
HS 578T [4] = test: cells; conditions: Homo sapiens
COLO 205 = test: cells; conditions: Homo sapiens
[5] = RPMI-8226, log10 concentration −4.0
[6] = RPMI-8226, log10 concentration −5.0
[7] = RPMI-8226, log10 concentration −6.0
[8] = RPMI-8226, log10 concentration −7.0
[9] = RPMI-8226, log10 concentration −8.0
[10] = SK-MEL-5, log10 concentration −4.0
[11] = SK-MEL-5, log10 concentration −5.0
[12] = SK-MEL-5, log10 concentration −6.0
[13] = SK-MEL-5, log10 concentration −7.0
[14] = SK-MEL-5, log10 concentration −8.0
[15] = OVCAR-4, log10 concentration −4.0
[16] = OVCAR-4, log10 concentration −5.0
[17] = OVCAR-4, log10 concentration −6.0
[18] = OVCAR-4, log10 concentration −7.0
[19] = OVCAR-4, log10 concentration −8.0
[20] = SNB-75, log10 concentration −4.0
[21] = SNB-75, log10 concentration −5.0
[22] = SNB-75, log10 concentration −6.0
[23] = SNB-75, log10 concentration −7.0
[24] = SNB-75, log10 concentration −8.0

Compound: CC(C)c1cnn2c(NCc3ccccc3)cc(N[C@@H](CO)[C@H](O)CO)nc12 [ICEC0318, (3S)-3-(7-(Benzylamino)-3-isopropylpyrazolo[1,5-a]pyrimidin-5-ylamino)butane-1,2,4-triol]
- TGI (U251; U251 (CNS Cancer)): >1.00E−4
- Mean Optical Densities (U251; U251, log10 concentration −4.0): 0.262
- Percent Growth (U251; U251, log10 concentration −4.0): 2%
- Mean Optical Densities (U251; U251, log10 concentration −5.0): 0.289
- Percent Growth (U251; U251, log10 concentration −5.0): 5%
- Mean Optical Densities (U251; U251, log10 concentration −6.0): 0.299
- Percent Growth (U251; U251, log10 concentration −6.0): 6%
- Mean Optical Densities (U251; U251, log10 concentration −7.0): 0.999
- Percent Growth (U251; U251, log10 concentration −7.0): 81%
- Mean Optical Densities (U251; U251, log10 concentration −8.0): 1.168
- Percent Growth (U251; U251, log10 concentration −8.0): 99%
- TGI (RPMI-8226; RPMI-8226 (Leukemia)): >1.00E−4
- Mean Optical Densities (RPMI-8226; [5]): 0.249
- Percent Growth (RPMI-8226; [5]): 7%
- Mean Optical Densities (RPMI-8226; [6]): 0.302
- Percent Growth (RPMI-8226; [6]): 18%
- Mean Optical Densities (RPMI-8226; [7]): 0.311
- Percent Growth (RPMI-8226; [7]): 19%
- Mean Optical Densities (RPMI-8226; [8]): 0.556
- Percent Growth (RPMI-8226; [8]): 67%
- Mean Optical Densities (RPMI-8226; [9]): 0.595
- Percent Growth (RPMI-8226; [9]): 75%
- TGI (MALME-3M; MALME-3M (Melanoma)): 1.09E−6
- Mean Optical Densities (MALME-3M; log10 concentration −4.0): 0.398
- Percent Growth (MALME-3M; log10 concentration −4.0): −29%
- Mean Optical Densities (MALME-3M; log10 concentration −5.0): 0.458
- Percent Growth (MALME-3M; log10 concentration −5.0): −19%
- Mean Optical Densities (MALME-3M; log10 concentration −6.0): 0.565
- Percent Growth (MALME-3M; log10 concentration −6.0): 1%
- Mean Optical Densities (MALME-3M; log10 concentration −7.0): 1.008
- Percent Growth (MALME-3M; log10 concentration −7.0): 126%
- Mean Optical Densities (MALME-3M; log10 concentration −8.0): 0.958
- Percent Growth (MALME-3M; log10 concentration −8.0): 112%
- GI50 (T-47D): 305 nM
- CC50 (T-47D; read-out: LC50): > 100000 nM
- GI50 (SNB-19; SNB-19): 283 nM
- CC50 (SNB-19; SNB-19, read-out: LC50): > 100000 nM
- TGI (LOX IMVI; LOX IMVI (Melanoma)): 1.46E−5
- Mean Optical Densities (LOX IMVI; log10 concentration −4.0): 0.224
- Percent Growth (LOX IMVI; log10 concentration −4.0): −19%
- Mean Optical Densities (LOX IMVI; log10 concentration −5.0): 0.328
- Percent Growth (LOX IMVI; log10 concentration −5.0): 4%
- Mean Optical Densities (LOX IMVI; log10 concentration −6.0): 0.326
- Percent Growth (LOX IMVI; log10 concentration −6.0): 4%
- Mean Optical Densities (LOX IMVI; log10 concentration −7.0): 1.208
- Percent Growth (LOX IMVI; log10 concentration −7.0): 64%
- Mean Optical Densities (LOX IMVI; log10 concentration −8.0): 1.614
- Percent Growth (LOX IMVI; log10 concentration −8.0): 92%
- GI50 (MCF7; MCF7): 221 nM
- CC50 (MCF7; MCF7, read-out: LC50): > 100000 nM
- GI50 (HT29; HT-29): 336 nM
- CC50 (HT29; HT-29, read-out: LC50): > 100000 nM
- GI50 (ACHN [1]): 233 nM
- CC50 (ACHN [1]; read-out: LC50): > 100000 nM
- GI50 (SF-295; SF-295): 266 nM
- CC50 (SF-295; SF-295, read-out: LC50): > 100000 nM
- TGI (HS 578T [2]; HS 578T (Breast Cancer)): 8.54E−7
- Mean Optical Densities (HS 578T [2]; log10 concentration −4.0): 0.314
- Percent Growth (HS 578T [2]; log10 concentration −4.0): −22%
- Mean Optical Densities (HS 578T [2]; log10 concentration −5.0): 0.352
- Percent Growth (HS 578T [2]; log10 concentration −5.0): −12%
- Mean Optical Densities (HS 578T [2]; log10 concentration −6.0): 0.373
- Percent Growth (HS 578T [2]; log10 concentration −6.0): −7%
- Mean Optical Densities (HS 578T [2]; log10 concentration −7.0): 0.803
- Percent Growth (HS 578T [2]; log10 concentration −7.0): 95%
- Mean Optical Densities (HS 578T [2]; log10 concentration −8.0): 0.867
- Percent Growth (HS 578T [2]; log10 concentration −8.0): 110%
- GI50 (HOP-92; HOP-92): 369 nM
- CC50 (HOP-92; HOP-92, read-out: LC50): > 100000 nM
- GI50 (HCT-15; HCT-15): 377 nM
- CC50 (HCT-15; HCT-15, read-out: LC50): > 100000 nM
- TGI (ACHN [3]; ACHN (Renal Cancer)): >1.00E−4
- Mean Optical Densities (ACHN [3]; log10 concentration −4.0): 0.343
- Percent Growth (ACHN [3]; log10 concentration −4.0): 5%
- Mean Optical Densities (ACHN [3]; log10 concentration −5.0): 0.347
- Percent Growth (ACHN [3]; log10 concentration −5.0): 5%
- Mean Optical Densities (ACHN [3]; log10 concentration −6.0): 0.358
- Percent Growth (ACHN [3]; log10 concentration −6.0): 6%
- Mean Optical Densities (ACHN [3]; log10 concentration −7.0): 1.080
- Percent Growth (ACHN [3]; log10 concentration −7.0): 75%
- Mean Optical Densities (ACHN [3]; log10 concentration −8.0): 1.302
- Percent Growth (ACHN [3]; log10 concentration −8.0): 96%
- GI50 (HS 578T [4]): 276 nM
- CC50 (HS 578T [4]; read-out: LC50): > 100000 nM
- TGI (SK-MEL-5; SK-MEL-5 (Melanoma)): 5.33E−7
- Mean Optical Densities (SK-MEL-5; [10]): 0.260
- Percent Growth (SK-MEL-5; [10]): −58%
- Mean Optical Densities (SK-MEL-5; [11]): 0.275
- Percent Growth (SK-MEL-5; [11]): −56%
- Mean Optical Densities (SK-MEL-5; [12]): 0.427
- Percent Growth (SK-MEL-5; [12]): −31%
- Mean Optical Densities (SK-MEL-5; [13]): 2.036
- Percent Growth (SK-MEL-5; [13]): 82%
- Mean Optical Densities (SK-MEL-5; [14]): 2.375
- Percent Growth (SK-MEL-5; [14]): 102%
- TGI (OVCAR-4; OVCAR-4 (Ovarian Cancer)): 1.45E−5
- Mean Optical Densities (OVCAR-4; [15]): 0.269
- Percent Growth (OVCAR-4; [15]): −25%
- Mean Optical Densities (OVCAR-4; [16]): 0.399
- Percent Growth (OVCAR-4; [16]): 5%
- Mean Optical Densities (OVCAR-4; [17]): 0.445
- Percent Growth (OVCAR-4; [17]): 10%
- Mean Optical Densities (OVCAR-4; [18]): 1.138
- Percent Growth (OVCAR-4; [18]): 95%
- Mean Optical Densities (OVCAR-4; [19]): 1.246
- Percent Growth (OVCAR-4; [19]): 109%
- TGI (M14; M14 (Melanoma)): 1.00E−6
- Mean Optical Densities (M14; M14, log10 concentration −4.0): 0.125
- Percent Growth (M14; M14, log10 concentration −4.0): −62%
- Mean Optical Densities (M14; M14, log10 concentration −5.0): 0.246
- Percent Growth (M14; M14, log10 concentration −5.0): −26%
- Mean Optical Densities (M14; M14, log10 concentration −6.0): 0.333
- Mean Optical Densities (M14; M14, log10 concentration −7.0): 1.032
- Percent Growth (M14; M14, log10 concentration −7.0): 97%
- Mean Optical Densities (M14; M14, log10 concentration −8.0): 1.074
- Percent Growth (M14; M14, log10 concentration −8.0): 103%
- GI50 (COLO 205; COLO 205): 147 nM
- CC50 (COLO 205; COLO 205, read-out: LC50): 993 nM
- TGI (SNB-75; SNB-75 (CNS Cancer)): 4.82E−7
- Mean Optical Densities (SNB-75; [20]): 0.072
- Percent Growth (SNB-75; [20]): −83%
- Mean Optical Densities (SNB-75; [21]): 0.162
- Percent Growth (SNB-75; [21]): −62%
- Mean Optical Densities (SNB-75; [22]): 0.226
- Percent Growth (SNB-75; [22]): −47%
- Mean Optical Densities (SNB-75; [23]): 0.911
- Percent Growth (SNB-75; [23]): 101%
- Mean Optical Densities (SNB-75; [24]): 0.848
- Percent Growth (SNB-75; [24]): 88%
